The source made the active and inactive calls. No cut-off for these calls is given here.
What was measured:
SARS-CoV-2 = experiment: Antiviral activity against SARS-CoV-2 infected in African Green monkey Vero cells assessed as inhibition of viral cytopathic effect measured after 72 hrs by inverted microscopic method; format: functional, organism-based, Vero E6; details: Severe acute respiratory syndrome coronavirus 2, Vero C1008, 72 h
[1] = Selectivity ratio of CC50 for African Green monkey Vero E6 cells to IC50 for SARS-CoV-2; format: toxicity, Vero C1008
Vero C1008 = details: chlorocebus sabaeus, vero c1008, 48 h
Description: (§1) Cytotoxicity against African Green monkey Vero E6 cells assessed as reduction in cell viability measured after 48 hrs by MTT assay

in vitro [2] = details: PAMPA
Description: (§2) Permeability of compound incubated for 3 hrs by UV plate reader based PAMPA assay

in vitro [3] = details: chlorocebus sabaeus, Vero E6 cells
Description: Cytotoxicity against African green monkey Vero E6 cells assessed as reduction in cell viability preincubated for 2 hrs followed by SARS-CoV-2 addition measured after 24 hrs by CPE assay

[4] = Stability of compound in human plasma at 100 uM by HPLC analysis; format: ADME, cell-free; details: read-out: Stability
[5] = Metabolic stability of the compound in human liver microsomes S9 fraction preincubated with NADPH for 10 mins followed by compound addition at 50 uM measured upto 360 mins by HPLC analysis; format: ADME, subcellular; details: read-out: Stability
Vero E6 = format: cell-based; details: Chlorocebus aethiops, time 1.0 hrs
[6] = pampa, 3 h
Description: as §2

[7] = Oral bioavailability in rat at 5 mg/kg; format: ADME, organism-based; details: in vivo
in vitro [8] = details: chlorocebus sabaeus, Vero E6 cells; remark: listed apart in the source
Description: as §1

Compound	IC50 (SARS-CoV-2) [µM]	CC50 (Vero C1008) [µM]	Papp at 3 h (in vitro [2]) [×10⁻⁶ cm/s]	other results
O=C(Nc1ccc([N+](=O)[O-])cc1Cl)c1ccccc1O	1.68	2.03	15.3	selectivity ratio [1]: 1.2; CC50 at 24 h (in vitro [3]): 100 µM
O=C(Nc1ccc([N+](=O)[O-])cc1Cl)c1ccccc1	–	> 100	42.2	–
Cc1c(O)cccc1C(=O)N[C@@H](CSc1ccccc1)[C@H](O)CN1C[C@H]2CCCC[C@H]2C[C@H]1C(=O)NC(C)(C)C	3.3	–	–	–
O=C(Nc1ccc([N+](=O)[O-])c(Cl)c1)c1cc(Cl)ccc1O	0.057	–	–	remaining at 100 µM [4]: 78%; remaining at 6 h, 50 µM [5]: 41%; inhibition (Vero E6): Active
Cc1ccc(CNC(=O)c2cc(Cl)ccc2O)cc1	–	47.7	42.6	–
O=C(Nc1ccc(C(F)(F)F)cc1)c1cc(Cl)ccc1O	0.38	–	6.9	–
O=C(Nc1ccc([N+](=O)[O-])cc1)c1cc(Cl)ccc1O	1.11	–	–	permeability [6]: 12.4 10^-6 cm/s
O=C(Nc1ccc(F)c(Cl)c1)c1cc(Cl)ccc1O	–	2.44	11.5	–
Cc1ccc(C(=O)Nc2ccc([N+](=O)[O-])cc2Cl)c(O)c1	–	21.6	6.1	–
COc1ccc2cc1Oc1ccc(cc1)C[C@H]1c3c(cc4c(c3Oc3cc5c(cc3OC)CCN(C)[C@@H]5C2)OCO4)CCN1C [CEPHARANTHINE]	2.8	–	–	–
O=C(Nc1ccc(N2CCCCC2)cc1)c1cc(Cl)ccc1O	–	65.9	43.3	–
O=C(Nc1ccc([N+](=O)[O-])cc1Cl)c1cc(Cl)ccc1O [NICLOSAMIDE]	0.4	1.03	8.5	bioavailability [7]: 10%; inhibition (Vero E6): Active
Cc1cccc(CNC(=O)c2cc(Cl)ccc2O)c1	–	82.4	28.4	–
O=C(Nc1ccc([N+](=O)[O-])cc1Cl)c1cc(F)ccc1O	–	8.15	30.7	–
Cc1ccc(O)c(C(=O)Nc2ccc([N+](=O)[O-])cc2Cl)c1	–	5.68	20.9	–
CNC(=C[N+](=O)[O-])NCCSCc1ccc(CN(C)C)o1 [RANITIDINE]	–	–	1.6	–
O=C(Nc1ccc(O)cc1)c1cc(Cl)ccc1O	–	–	33.1	CC50 at 48 h (in vitro [8]): > 100 µM
O=C(Nc1cccc(O)c1)c1cc(Cl)ccc1O	–	–	15.9	CC50 at 48 h (in vitro [8]): > 100 µM
O=C(Nc1cccc([N+](=O)[O-])c1)c1cc(Cl)ccc1O	1.29	3.53	19.5	–
CC(C)(C)c1cccc(NC(=O)c2cc(Cl)ccc2O)c1	1.51	2.36	18.7	selectivity ratio [1]: 1.6
O=C(Nc1ccc(F)cc1)c1cc(Cl)ccc1O	–	6.78	–	permeability [6]: 18.2 10^-6 cm/s
O=C(Nc1ccccc1)c1cc(Cl)ccc1O	8.59	19.2	16	–
O=C(Nc1ccc(O[C@@H]2O[C@H](CO)[C@@H](O)[C@H](O)[C@H]2O)cc1)c1cc(Cl)ccc1O	–	> 100	1.9	–
O=C(Nc1cccc(C(F)(F)F)c1)c1cc(Cl)ccc1O	0.49	5.95	4.2	remaining at 6 h, 50 µM [5]: 47%; CC50 at 24 h (in vitro [3]): 100 µM
O=C(Nc1cccc(Cl)c1)c1cc(Cl)ccc1O	0.39	2.46	8.6	remaining at 6 h, 50 µM [5]: 33%
O=C(Nc1cccc(F)c1)c1cc(Cl)ccc1O	–	3.63	3.7	–

Reference: ChEMBL document CHEMBL5131509 (Eur J Med Chem, 2022)
